We go through one molecule from paper PMC12209172, “Poly(ADP-ribose)polymerase 2 is zinc-dependent enzyme and nucleosome reorganizer” (Cellular and Molecular Life Sciences: CMLS, 2025).

In experiment [1] the target is T1, PARP2-nucleosome complexes (Mus musculus, UniProt O88554).
T1 construct: Recombinant mouse full-length PARP2 was obtained in the baculovirus expression system; made in house; host or cells: PARP2: Sf9 insect cells (baculovirus), gift of Prof; O. Lavrik; nucleosomes assembled in house
Nature of the experiment: spFRET microscopy in solution of nucleosomes and PARP2-nucleosome complexes. The settings on record: for EPR centre of the structural state of nucleosomes: PARP2 plus 0.3 mM Zn2+. As for the experimental part:
In the study of nucleosome-PARP2 interactions, nucleosomes (1-2 nM) were incubated with PARP2 (12.5-200 nM) in buffer A (50 mM Tris-HCl pH 7.5; 40 mM NaCl; 0.5 mM β-mercaptoethanol (β-ME); 0.1% NP40) at 25 °C for 30 min. When indicated, buffer A was supplemented with 50 μM - 5 mM ZnCl2, 5 mM CaCl2 or 5 mM MgCl2. […] […] measurements in solution were performed as described previously. Each measured single nucleosome was characterized by FRET between Cy3 and Cy5 labels calculated as a proximity ratio (EPR):1 [drawing 1] Where I3 and I5 are fluorescence intensities of Cy3 and Cy5, respectively, and coefficients 0.19 and 0.81 provide correction for the spectral cross-talk between Cy3 and Cy5 detection channels. EPR is a FRET efficiency not corrected for quantum yields of labels and an instrumentation factor. Relative frequency distributions of nucleosomes by EPR values, i.e. EPR profiles, (2000-5000 nucleosomes per experiment; 3 independent experiments) were plotted and further analyzed as a superposition of several normal (Gaussian) distributions for nucleosomes or nucleosome-PARP2 complexes. Since nucleosomes tend to aggregate when PARP2 is added (especially at high concentrations), treatment of signals measured from nucleosomes and their complexes included mandatory rejection of signals from any aggregates that are clearly recognized due to their slow diffusion rate and/or abnormally high fluorescence intensity.

The target in experiment [2] is T2, WGR domain-nucleosome complexes (Homo sapiens, UniProt Q9UGN5).
T2 construct: WGR domain of PARP2 (residues 77–220) into pET-15b-TEV expression vector; 6xHis (pET-15b-TEV) (N, cleaved yes); made in house; host or cells: Escherichia coli Rosetta2 (DE3) pLysS (WGR)
In words: spFRET microscopy of WGR domain-nucleosome complexes. The note with it: Np nucleosomes, WGR domain plus 2 mM Zn2+. As for the experimental part: In the study of nucleosome-PARP2 interactions, nucleosomes (1–2 nM) were incubated with PARP2 (12.5–200 nM) in buffer A (50 mM Tris-HCl pH 7.5; 40 mM NaCl; 0.5 mM β-mercaptoethanol (β-ME); 0.1% NP40) at 25 °C for 30 min. When indicated, buffer A was supplemented with 50 µM – 5 mM ZnCl2, 5 mM CaCl2 or 5 mM MgCl2. To study the stability of Zn^2+-PARP2-nucleosome complexes, PARP2-nucleosome complexes that have been formed for 30 min in buffer A containing 50 nM PARP2 and 0.15 mM Zn^2+ ions were mixed with EDTA (10 mM) and incubated for 15 min. In the studies of PARylation, NAD+ (0.5–10 µM) was mixed with nucleosomes (1–2 nM) and PARP2 (100 nM) in buffer A and incubated for 45 min at 25 °C.
spFRET measurements in solution were performed as described previously. Each measured single nucleosome was characterized by FRET between Cy3 and Cy5 labels calculated as a proximity ratio (EPR):1 [drawing 1]
Where I3 and I5 are fluorescence intensities of Cy3 and Cy5, respectively, and coefficients 0.19 and 0.81 provide correction for the spectral cross-talk between Cy3 and Cy5 detection channels. […] Relative frequency distributions of nucleosomes by EPR values, i.e. EPR profiles, (2000–5000 nucleosomes per experiment; 3 independent experiments) were plotted and further analyzed as a superposition of several normal (Gaussian) distributions for nucleosomes or nucleosome-PARP2 complexes. […]

The target in experiment [3] is PARP2 (Mus musculus, UniProt O88554). In words: Western blot analysis of NAD+-dependent PARylation by PARP2 in PARP2-nucleosome complexes. The format is biochemical. Also noted: Recombinant mouse full-length PARP2 was obtained in the baculovirus expression system; made in house; host or cells: PARP2: Sf9 insect cells (baculovirus), gift of Prof; O. Lavrik; nucleosomes assembled in house. The note with it: Mg2+ 5 mM or Zn2+ 0.3 mM; PARP2 100 nM, nucleosomes 3 nM, NAD+ 0-5 µM. As for the experimental part: Probes were subjected to electrophoresis in 4–12% bis-Tris gradient gel in the NuPAGE™ MES SDS Running Buffer at 130 V. […] The membrane was incubated for 60 min in the PBS-T solution supplemented with the 5% skimmed milk. Then the membrane was incubated with mouse monoclonal antibodies 10 H followed by incubation with the secondary anti-mouse antibodies conjugated with horseradish peroxidase (Bio-Rad, Hercules, CA, USA). The washing procedure was carried out after each step of incubation. Immunodetection was performed using the Super Signal West Pico Chemiluminescent Substrate (Thermo Fisher Scientific, Waltham, MA, USA) for 3 min. The Western blot experiments were performed in three independent repetitions.

With `[Cl-].[Cl-].[Zn+2]` [Zn2+, ZnCl2], the “effect of ions on the nucleosome structure” value in experiment [1] (NP nucleosomes without PARP2, 5 mM ions) was “minimally affect”. For the same molecule, the “EPR centre of the new peak in the EPR profile” value in experiment [1] (NP nucleosomes, PARP2 plus Zn2+) stood at 0.4. Besides, in experiment [1] (Nd nucleosomes), the “EPR centre of the structural state of nucleosomes” value is 0.5. Further, in experiment [1] (Nm nucleosomes), the “EPR centre of the structural state of nucleosomes” value turned out to be 0.4. Besides, in experiment [1] (PARP2 50 nM, NP nucleosomes), the “Zn2+ concentration above which the structure of PARP2-nucleosome complexes is affected” value is “higher than 75 µM” and the “Zn2+ concentration at which all the complexes are converted to the altered conformation” value turned out to be 150 µM. The “effect of ions on the structure of nucleosomes in PARP2-nucleosome complexes” value in experiment [1] (PARP2 50 nM, Zn2+ 0.3 mM, Ca2+ 5 mM or Mg2+ 5 mM) is reported as “induce alterations in the structure of PARP2-nucleosome complexes”. For the same molecule, the “effect of Zn2+ on the affinity of PARP2 to nucleosomes” value in experiment [1] (compared with EMSA in the absence of Zn2+) is on record as “not significantly affected”. Also, the “EPR maximum of the new peak in the EPR profile” value in experiment [2] stood at 0.4. In addition, the “effect of ions on efficiency of PARP2-mediated PARylation” value in experiment [3] is on record as “decrease”.
